The SangsterLogP compilation

Compound	logP
CCCCCOc1ccccc1NC(=O)OCCN(C)C	1.83
CCCCCCCCOc1ccccc1NC(=O)OCCN(C)C	2.98
CCOc1ccccc1NC(=O)OCCN(C)C	1.15
CCOc1ccc(NC(=O)OCCN(C)C)cc1	1.14
CCCCCCCCCCOc1ccccc1NC(=O)OCCN(C)C	3.82
CCCCCCCCCOc1ccccc1NC(=O)OCCN(C)C	3.35
CCCOc1ccc(NC(=O)OCCN(C)C)cc1	1.41
COc1ccccc1NC(=O)OCCN(C)C	1.15
CCCOc1ccccc1NC(=O)OCCN(C)C	1.24
CCCCCCCCCCOc1ccc(NC(=O)OCCN(C)C)cc1	4.02
COc1ccc(NC(=O)OCCN(C)C)cc1	0.97
CCCCOc1ccc(NC(=O)OCCN(C)C)cc1	1.77
CCCCOc1ccccc1NC(=O)OCCN(C)C	1.5

Results, then the molecule that gave them:

logP	Compound
1.35	CCCCOc1cccc(NC(=O)OCCN(C)C)c1
0.8	CCOc1cccc(NC(=O)OCCN(C)C)c1
2.93	CCCCCCCOc1ccc(NC(=O)OCCN(C)C)cc1
3.26	CCCCCCCCOc1ccc(NC(=O)OCCN(C)C)cc1
2.87	CCCCCCCCOc1cccc(NC(=O)OCCN(C)C)c1
1.04	CCCOc1cccc(NC(=O)OCCN(C)C)c1
2.01	CCCCCCOc1cccc(NC(=O)OCCN(C)C)c1
2.43	CCCCCCCOc1cccc(NC(=O)OCCN(C)C)c1
2.13	CCCCCCOc1ccccc1NC(=O)OCCN(C)C
3.21	CCCCCCCCCOc1cccc(NC(=O)OCCN(C)C)c1
2.11	CCCCCOc1ccc(NC(=O)OCCN(C)C)cc1
2.47	CCCCCCOc1ccc(NC(=O)OCCN(C)C)cc1
2.5	CCCCCCCOc1ccccc1NC(=O)OCCN(C)C
1.72	CCCCCOc1cccc(NC(=O)OCCN(C)C)c1
